According to PubChem BioAssay AID1918956 (Molecular Pharmacology Branch, DTP, NCI, 2023):

Test system: OVCAR-5 complex spheroids, viability
Test: Anticancer human tumor OVCAR-5 cell line growth inhibition;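 further: spheroids exposed to agents for seven days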;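 on viability, T/C: 100% = DMSO vehicle control wells viability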
Conditions: for IC50: curve of first compound; for viability, T/C: stronger effect = lower value
Procedure, shortened: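 Multicellular complex spheroids of tumor cells with human endothelial cells (HUVEC) and mesenchymal stem cells; the LSD1 inhibitor iadademstat was combined with standard-of-care or investigational agents. Top concentration at or near clinical Cmax, half-log dilutions; final DMSO ≤0.25%.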

[1] = second compound 0.1 µM, first compound 0.00949 µM
[2] = second compound 0.1 µM, first compound 0.03 µM
[3] = second compound 0.1 µM, first compound 0.0949 µM
[4] = second compound 0.1 µM, first compound 0.3 µM
[5] = second compound 0.1 µM, first compound 0.949 µM
[6] = second compound 0.1 µM, first compound 3 µM
[7] = second compound 0.316 µM, first compound 0.00949 µM
[8] = second compound 0.316 µM, first compound 0.03 µM
[9] = second compound 0.316 µM, first compound 0.0949 µM
[10] = second compound 0.316 µM, first compound 0.3 µM
[11] = second compound 0.316 µM, first compound 0.949 µM
[12] = second compound 0.316 µM, first compound 3 µM
[13] = second compound 1 µM, first compound 0.00949 µM
[14] = second compound 1 µM, first compound 0.03 µM
[15] = second compound 1 µM, first compound 0.0949 µM
[16] = second compound 1 µM, first compound 0.3 µM
[17] = second compound 1 µM, first compound 0.949 µM
[18] = second compound 1 µM, first compound 3 µM
[19] = second compound 3.16 µM, first compound 0.00949 µM
[20] = second compound 3.16 µM, first compound 0.03 µM
[21] = second compound 3.16 µM, first compound 0.0949 µM
[22] = second compound 3.16 µM, first compound 0.3 µM
[23] = second compound 3.16 µM, first compound 0.949 µM
[24] = second compound 3.16 µM, first compound 3 µM
[25] = second compound 10 µM, first compound 0.00949 µM
[26] = second compound 10 µM, first compound 0.03 µM
[27] = second compound 10 µM, first compound 0.0949 µM
[28] = second compound 10 µM, first compound 0.3 µM
[29] = second compound 10 µM, first compound 0.949 µM
[30] = second compound 10 µM, first compound 3 µM

`Cn1ncnc1C1c2n[nH]c(=O)c3cc(F)cc(c23)NC1c1ccc(F)cc1` (stereo not given) + NC1CCC(NC2CC2c2ccccc2)CC1 was tested, and the IC50 (second compound 0.1 µM) was > 100 nM, the IC50 (second compound 0.316 µM) was > 100 nM and the IC50 (second compound 1 µM) was > 100 nM. The IC50 (second compound 3.16 µM) was > 100 nM, the IC50 (second compound 10 µM) was > 100 nM and the viability, T/C (second compound 0.1 µM, first compound 0.000316 µM) was 109%. The viability, T/C (second compound 0.1 µM, first compound 0.001 µM) was 95.3%, the viability, T/C (second compound 0.1 µM, first compound 0.00316 µM) was 104% and the viability, T/C (second compound 0.1 µM, first compound 0.01 µM) was 104%. It also gave a viability, T/C (second compound 0.1 µM, first compound 0.0316 µM) of 99.5%, a viability, T/C (second compound 0.1 µM, first compound 0.1 µM) of 100% and a viability, T/C (second compound 0.316 µM, first compound 0.000316 µM) of 112%. It also gave a viability, T/C (second compound 0.316 µM, first compound 0.001 µM) of 98.7%, a viability, T/C (second compound 0.316 µM, first compound 0.00316 µM) of 98.3% and a viability, T/C (second compound 0.316 µM, first compound 0.01 µM) of 96%. The viability, T/C (second compound 0.316 µM, first compound 0.0316 µM) was 91.9%, the viability, T/C (second compound 0.316 µM, first compound 0.1 µM) was 104% and the viability, T/C (second compound 1 µM, first compound 0.000316 µM) was 109%. The viability, T/C (second compound 1 µM, first compound 0.001 µM) was 96.2%, the viability, T/C (second compound 1 µM, first compound 0.00316 µM) was 95.7% and the viability, T/C (second compound 1 µM, first compound 0.01 µM) was 99.3%. It also gave a viability, T/C (second compound 1 µM, first compound 0.0316 µM) of 99%, a viability, T/C (second compound 1 µM, first compound 0.1 µM) of 94.3% and a viability, T/C (second compound 3.16 µM, first compound 0.000316 µM) of 97.4%. The viability, T/C (second compound 3.16 µM, first compound 0.001 µM) was 95.9%, the viability, T/C (second compound 3.16 µM, first compound 0.00316 µM) was 87.9% and the viability, T/C (second compound 3.16 µM, first compound 0.01 µM) was 91.3%. For the same compound, the viability, T/C (second compound 3.16 µM, first compound 0.0316 µM) was 80.2%, the viability, T/C (second compound 3.16 µM, first compound 0.1 µM) was 91.5% and the viability, T/C (second compound 10 µM, first compound 0.000316 µM) was 86%. The viability, T/C (second compound 10 µM, first compound 0.001 µM) was 107%, the viability, T/C (second compound 10 µM, first compound 0.00316 µM) was 81.4% and the viability, T/C (second compound 10 µM, first compound 0.01 µM) was 79%. For the same compound, the viability, T/C (second compound 10 µM, first compound 0.0316 µM) was 67.6% and the viability, T/C (second compound 10 µM, first compound 0.1 µM) was 81.3%.

For `NS(=O)(=O)OCC1CC(n2ccc3c(NC4CCc5ccccc54)ncnc32)CC1O` (stereo not given) + NC1CCC(NC2CC2c2ccccc2)CC1, the IC50 (second compound 0.1 µM) was 202 nM, the IC50 (second compound 0.316 µM) was 223 nM and the IC50 (second compound 1 µM) was 221 nM. The IC50 (second compound 3.16 µM) was 179 nM, the IC50 (second compound 10 µM) was 152 nM and the viability, T/C [1] was 122%. The viability, T/C [2] was 118%, the viability, T/C [3] was 76% and the viability, T/C [4] was 36.6%. For the same compound, the viability, T/C [5] was 16.2%, the viability, T/C [6] was 9.81% and the viability, T/C [7] was 139%. For the same compound, the viability, T/C [8] was 126%, the viability, T/C [9] was 84.8% and the viability, T/C [10] was 38.4%. For the same compound, the viability, T/C [11] was 15.5%, the viability, T/C [12] was 10.6% and the viability, T/C [13] was 108%. It also gave a viability, T/C [14] of 98.6%, a viability, T/C [15] of 80.8% and a viability, T/C [16] of 38.2%. For the same compound, the viability, T/C [17] was 17.9%, the viability, T/C [18] was 10.7% and the viability, T/C [19] was 98.8%. It also gave a viability, T/C [20] of 105%, a viability, T/C [21] of 69.2% and a viability, T/C [22] of 33.5%. It also gave a viability, T/C [23] of 16.4%, a viability, T/C [24] of 9.81% and a viability, T/C [25] of 101%. It also gave a viability, T/C [26] of 79.3%, a viability, T/C [27] of 64.7% and a viability, T/C [28] of 34%. The viability, T/C [29] was 14.3% and the viability, T/C [30] was 8.62%.

With `O=C(C=Cc1cccc(S(=O)(=O)Nc2ccccc2)c1)NO` + NC1CCC(NC2CC2c2ccccc2)CC1 the IC50 (second compound 0.1 µM) was 157 nM, the IC50 (second compound 0.316 µM) was 172 nM and the IC50 (second compound 1 µM) was 192 nM. For the same compound, the IC50 (second compound 3.16 µM) was 167 nM, the IC50 (second compound 10 µM) was 173 nM and the viability, T/C [1] was 98.5%. The viability, T/C [2] was 92.8%, the viability, T/C [3] was 62.8% and the viability, T/C [4] was 31.2%. For the same compound, the viability, T/C [5] was 15.3%, the viability, T/C [6] was 4.12% and the viability, T/C [7] was 95.7%. The viability, T/C [8] was 89.1%, the viability, T/C [9] was 64.6% and the viability, T/C [10] was 35.5%. For the same compound, the viability, T/C [11] was 14.4%, the viability, T/C [12] was 3.93% and the viability, T/C [13] was 106%. For the same compound, the viability, T/C [14] was 96%, the viability, T/C [15] was 69.7% and the viability, T/C [16] was 37.8%. For the same compound, the viability, T/C [17] was 14.3%, the viability, T/C [18] was 6.24% and the viability, T/C [19] was 88%. For the same compound, the viability, T/C [20] was 86.1%, the viability, T/C [21] was 62.2% and the viability, T/C [22] was 35.3%. The viability, T/C [23] was 15.6%, the viability, T/C [24] was 3.02% and the viability, T/C [25] was 89.5%. It also gave a viability, T/C [26] of 89.2%, a viability, T/C [27] of 60% and a viability, T/C [28] of 37.8%. The viability, T/C [29] was 16.7% and the viability, T/C [30] was 2.99%.
